Results as given in patent publication US20100286145A1, “ISOPHTHALAMIDE DERIVATIVES INHIBITING BETA-SECRETASE ACTIVITY” (CoMentis, Inc., priority 2007, published 2010).
Read-outs that look alike come from different tables or passages of the source.

Columns and labels:
[1] = test system: Aβ production in Chinese hamster ovary cells that over-express human APP695 with the London and Swedish mutations; test: Cellular Aβ IC50 determination (Aβ40 sandwich ELISA); assay type: cell-based; conditions: Cricetulus griseus; cellular Aβ production; read-out: IC50
Protocol: The potency of compounds against memapsin 2 activity was determined in a cellular assay of Aβ production. […] Chinese hamster ovary cells that over-express human APP695 with the London and Swedish mutations were seeded in multi-well plates at 10% confluency. Compounds are dissolved in DMSO to concentrations near 1 mM, and diluted into culture media to a final concentration near 4 μM (final 0.4% DMSO). […] Aliquots were removed and assayed for Aβ40 content using a sandwich ELISA (BioSource International). Amount of Aβ40 over the range of concentration of compounds, relative to control incubations, were fit to a 4-parameter IC50 model.

memapsin 2 = memapsin 2 (Homo sapiens, UniProt P56817); test: Inhibition of memapsin 2 beta-secretase activity (fluorogenic substrate FS-2); assay type: biochemical; conditions: memapsin 2, pH 4, 37° C., read-out: M2Ki
memapsin 2, sequence (P56817 46-501): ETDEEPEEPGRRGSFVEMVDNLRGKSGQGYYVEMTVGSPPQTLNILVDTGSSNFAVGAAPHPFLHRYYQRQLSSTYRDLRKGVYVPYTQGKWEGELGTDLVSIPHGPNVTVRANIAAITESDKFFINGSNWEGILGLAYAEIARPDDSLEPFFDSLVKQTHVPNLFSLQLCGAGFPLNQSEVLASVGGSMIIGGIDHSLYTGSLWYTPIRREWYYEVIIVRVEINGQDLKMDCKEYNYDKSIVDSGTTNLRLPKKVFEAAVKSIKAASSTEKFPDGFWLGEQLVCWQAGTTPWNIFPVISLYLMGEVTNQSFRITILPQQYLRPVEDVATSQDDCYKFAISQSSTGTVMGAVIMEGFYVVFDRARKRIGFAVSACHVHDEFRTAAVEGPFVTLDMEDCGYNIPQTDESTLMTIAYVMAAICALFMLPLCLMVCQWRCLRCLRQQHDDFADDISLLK
Method in brief: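 Kinetic fluorogenic assay: hydrolysis of the MCA/DNP-labelled APP Swedish-variant peptide FS-2 monitored as fluorescence rise at 37° C, pH 4, after 20 min enzyme–compound preincubation. Relative rates fitted with a tight-binding inhibitor model.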

| Structure (SMILES) | IC50 [1] [nM] | Ki (memapsin 2; fluorogenic substrate FS-2) [nM] | Ki (memapsin 2; 20 minutes pre-incubation) [nM] |
| --- | --- | --- | --- |
| Cc1nc(CN(C)C(=O)c2cccc(C(=O)N[C@@H](Cc3ccccc3)[C@H](O)CNCc3cncc(C(C)C)c3)c2)no1 [Compound 240, N1-((2S,3R)-3-hydroxy-4-((5-isopropylpyridin-3-yl)methylamino)-1-phenylbutan-2-yl)-N3-methyl-N3-((5-methyl-1,2,4-oxadiazol-3-yl)methyl)isophthalamide] | 1000 to 5000 | 301 to 500 |  |
| C[C@@H](NC(=O)c1cc(C(=O)N[C@@H](Cc2ccccc2)[C@H](O)CNCc2cccc(CO)c2)cc(N(C)S(C)(=O)=O)c1)c1ccccc1 [Compound 107, N1-((2S,3R)-3-hydroxy-4-(3-(hydroxymethyl)benzylamino)-1-phenylbutan-2-yl)-5-(N-methylmethylsulfonamido)-N3-((R)-1-phenylethyl)isophthalamide] | < 1000 |  | < 300 |
| CC(C)c1cncc(CNC[C@@H](O)[C@H](Cc2ccccc2)NC(=O)c2cc(C(=O)N[C@H](C)c3ccccc3)cc(-c3ncco3)c2)c1 [Compound 211, N1-((2S,3R)-3-hydroxy-4-((5-isopropylpyridin-3-yl)methylamino)-1-phenylbutan-2-yl)-5-(oxazol-2-yl)-N3-((R)-1-phenylethyl)isophthalamide] | < 1000 | < 300 |  |
| Cc1csc(CN(C)C(=O)c2ccc(C)c(C(=O)N[C@@H](Cc3ccccc3)[C@H](O)CNCc3cncc(C(C)C)c3)c2)n1 [Compound 249, N3-((2S,3R)-3-hydroxy-4-((5-isopropylpyridin-3-yl)methylamino)-1-phenylbutan-2-yl)-N1,4-dimethyl-N1-((4-methylthiazol-2-yl)methyl)isophthalamide] | > 5000 | > 501 |  |
| COc1cc(C(=O)N[C@@H](Cc2ccccc2)[C@H](O)CNCc2ccnc(C(C)C)c2)cc(C(=O)N(C)Cc2nc(C)cs2)c1 [Compound 53, N1-((2S,3R)-3-hydroxy-4-((2-isopropylpyridin-4-yl)methylamino)-1-phenylbutan-2-yl)-5-methoxy-N3-methyl-N3-((4-methylthiazol-2-yl)methyl)isophthalamide] | < 1000 |  | < 300 |
| Cc1csc(CN(C)C(=O)c2cc(C(=O)N[C@@H](Cc3ccccc3)[C@H](O)CNCc3cncc(C(C)C)c3)cc(-n3cccc3)c2)n1 [Compound 239, N1-((2S,3R)-3-hydroxy-4-((5-isopropylpyridin-3-yl)methylamino)-1-phenylbutan-2-yl)-N3-methyl-N3-((4-methylthiazol-2-yl)methyl)-5-(1H-pyrrol-1-yl)isophthalamide] | < 1000 | < 300 |  |
| Cc1csc(CN(C)C(=O)c2cc(OS(C)(=O)=O)cc(C(=O)N[C@@H](Cc3ccccc3)[C@H](O)CNCc3cncc(C(C)C)c3)c2)n1 [Compound 100, 3-((2S,3R)-3-hydroxy-4-((5-isopropylpyridin-3-yl)methylamino)-1-phenylbutan-2-ylcarbamoyl)-5-(methyl((4-methylthiazol-2-yl)methyl)carbamoyl)phenyl methanesulfonate] | < 1000 |  | < 300 |
| Cc1csc(CN(C)C(=O)c2cc(C(=O)N[C@@H](Cc3ccccc3)[C@H](O)CNCc3cncc(C(C)C)c3)cc(-c3ncc[nH]3)c2)n1 [Compound 263, N1-((2S,3R)-3-hydroxy-4-((5-isopropylpyridin-3-yl)methylamino)-1-phenylbutan-2-yl)-5-(1H-imidazol-2-yl)-N3-methyl-N3-((4-methylthiazol-2-yl)methyl)isophthalamide] | < 1000 | < 300 |  |
| Cc1csc(CN(C)C(=O)c2cccc(C(=O)N[C@@H](Cc3ccccc3)[C@H](O)CNCc3cc(OS(C)(=O)=O)cc(C(C)C)c3)c2)n1 [Compound 165, 3-(((2R,3S)-2-hydroxy-3-(3-(methyl((4-methylthiazol-2-yl)methyl)carbamoyl)benzamido)-4-phenylbutylamino)methyl)-5-isopropylphenyl methanesulfonate] | < 1000 |  | < 300 |
| Cc1csc(CN(C)C(=O)c2cc(C(=O)N[C@@H](Cc3ccccc3)[C@H](O)CNCc3cncc(C(C)C)c3)cc(N3CCCC3=O)c2)n1 [Compound 195, N1-((2S,3R)-3-hydroxy-4-((5-isopropylpyridin-3-yl)methylamino)-1-phenylbutan-2-yl)-N3-methyl-N3-((4-methylthiazol-2-yl)methyl)-5-(2-oxopyrrolidin-1-yl)isophthalamide] | < 1000 |  | < 300 |

Other lines, results leading:

| IC50 [1] [nM] | Ki (memapsin 2; fluorogenic substrate FS-2) [nM] | Ki (memapsin 2; 20 minutes pre-incubation) [nM] | Structure (SMILES) |
| --- | --- | --- | --- |
| < 1000 |  | < 300 | Cc1csc(CN(C)C(=O)c2cccc(C(=O)N[C@@H](Cc3ccccc3)[C@H](O)CNCc3cccc(C(C)(C)C)c3O)c2)n1 [Compound 77, N1-((2S,3R)-4-(3-tert-butyl-2-hydroxybenzylamino)-3-hydroxy-1-phenylbutan-2-yl)-N3-methyl-N3-((4-methylthiazol-2-yl)methyl)isophthalamide] |
| < 1000 | < 300 |  | C=C(C)c1cc(CNC[C@@H](O)[C@H](Cc2ccccc2)NC(=O)c2cccc(C(=O)N(C)Cc3nc(C)cs3)c2)c[n+]([O-])c1 [Compound 269, 3-(((2R,3S)-2-hydroxy-3-(3-(methyl((4-methylthiazol-2-yl)methyl)carbamoyl)benzamido)-4-phenylbutylamino)methyl)-5-(prop-1-en-2-yl)pyridine 1-oxide] |
| < 1000 |  | < 300 | COc1cccc(CNC[C@@H](O)[C@H](Cc2ccccc2)NC(=O)c2cc(C(=O)N(C)Cc3nc(C)cs3)cc(-c3ccccc3C#N)c2)c1 [Compound 140, 2′-cyano-N3-((2S,3R)-3-hydroxy-4-(3-methoxybenzylamino)-1-phenylbutan-2-yl)-N5-methyl-N5-((4-methylthiazol-2-yl)methyl)biphenyl-3,5-dicarboxamide] |
| < 1000 |  | < 300 | Cc1csc(CN(C)C(=O)c2cccc(C(=O)N[C@@H](Cc3ccccc3)[C@H](O)CNCc3cncc(CCC(C)C)c3)c2)n1 [Compound 68, N1-((2S,3R)-3-hydroxy-4-((5-isopentylpyridin-3-yl)methylamino)-1-phenylbutan-2-yl)-N3-methyl-N3-((4-methylthiazol-2-yl)methyl)isophthalamide] |
| < 1000 | < 300 |  | COc1cc(CNC[C@@H](O)[C@H](Cc2ccccc2)NC(=O)c2cccc(C(=O)N(C)Cc3nc(C)cs3)c2)cc(N(C)C)c1 [Compound 224, N1-((2S,3R)-4-(3-(dimethylamino)-5-methoxybenzylamino)-3-hydroxy-1-phenylbutan-2-yl)-N3-methyl-N3-((4-methylthiazol-2-yl)methyl)isophthalamide] |
| < 1000 |  | < 300 | Cc1csc(CN(C)C(=O)c2cccc(C(=O)N[C@@H](Cc3ccccc3)[C@H](O)CNCc3cc(-c4ccccc4)on3)c2)n1 [Compound 196, N1-((2S,3R)-3-hydroxy-1-phenyl-4-((5-phenylisoxazol-3-yl)methylamino)butan-2-yl)-N3-methyl-N3-((4-methylthiazol-2-yl)methyl)isophthalamide] |
| < 1000 | 301 to 500 |  | COc1cccc([C@H](C)NC[C@@H](O)[C@H](Cc2ccccc2)NC(=O)c2cc(C(=O)N(C)Cc3nc(C)cs3)cc(N(C)C)c2)c1 [Compound 260, 5-(dimethylamino)-N1-((2S,3R)-3-hydroxy-4-((S)-1-(3-methoxyphenyl)ethylamino)-1-phenylbutan-2-yl)-N3-methyl-N3-((4-methylthiazol-2-yl)methyl)isophthalamide] |
| < 1000 |  | < 300 | COc1cccc(CNC[C@@H](O)[C@H](Cc2ccccc2)NC(=O)c2cc(C(=O)N(C)Cc3nc(C)cs3)cc(N(C)C)c2)c1 [Compound 65, 5-(dimethylamino)-N1-((2S,3R)-3-hydroxy-4-(3-methoxybenzylamino)-1-phenylbutan-2-yl)-N3-methyl-N3-((4-methylthiazol-2-yl)methyl)isophthalamide] |
| < 1000 |  | < 300 | COC(=O)c1cc(CNC[C@@H](O)[C@H](Cc2ccccc2)NC(=O)c2cccc(C(=O)N(C)Cc3nc(C)cs3)c2)cc(OC)c1 [Compound 54, methyl 3-(((2R,3S)-2-hydroxy-3-(3-(methyl((4-methylthiazol-2-yl)methyl)carbamoyl)benzamido)-4-phenylbutylamino)methyl)-5-methoxybenzoate] |
| 1000 to 5000 |  | > 501 | Cc1csc(CN(C)C(=O)c2cccc(C(=O)N[C@@H](Cc3ccccc3)[C@H](O)CNCc3cnn(C(C)(C)C)c3C)c2)n1 [Compound 118, N1-((2S,3R)-4-((1-tert-butyl-5-methyl-1H-pyrazol-4-yl)methylamino)-3-hydroxy-1-phenylbutan-2-yl)-N3-methyl-N3-((4-methylthiazol-2-yl)methyl)isophthalamide] |
| > 5000 |  | > 501 | COc1cccc(NC[C@@H](O)[C@H](Cc2ccccc2)NC(=O)c2cccc(C(=O)N(C)Cc3nc(C)cs3)c2)c1 [Compound 166, N1-((2S,3R)-3-hydroxy-4-(3-methoxyphenylamino)-1-phenylbutan-2-yl)-N3-methyl-N3-((4-methylthiazol-2-yl)methyl)isophthalamide] |
| < 1000 | < 300 |  | Cc1csc(CN(C)C(=O)c2cccc(C(=O)N[C@@H](Cc3ccccc3)[C@H](O)CNCc3cc(Br)cc(C(F)(F)F)c3)c2)n1 [Compound 265, N1-((2S,3R)-4-(3-bromo-5-(trifluoromethyl)benzylamino)-3-hydroxy-1-phenylbutan-2-yl)-N3-methyl-N3-((4-methylthiazol-2-yl)methyl)isophthalamide] |
